Test results taken from ChEMBL document CHEMBL1135049, “Protective effects of polygodial and related compounds on ethanol-induced gastric mucosal lesions in rats: structural requirements and mode of action” (2002).

Assays:
[1] = tested on: Rattus norvegicus; test: Inhibitory effect of perorally administered compound (1.0 mg/kg) on gastric lesions induced by ethanol in 6 rats with observed lession index (76.4 mm) was determined; assay type: functional, Stomach
[2] = tested on: Rattus norvegicus; test: Inhibitory effect of perorally administered compound (1.0 mg/kg) on gastric lesions induced by ethanol in 9 rats with observed lession index (100.5 mm) was determined; assay type: functional, Stomach
[3] = tested on: Rattus norvegicus; test: Inhibitory effect of perorally administered compound (1.0 mg/kg) on gastric lesions induced by ethanol in 9 rats with observed lession index (88.1 mm) was determined; assay type: functional, Stomach
[4] = tested on: Rattus norvegicus; test: Gastroprotective effect of compound was determined in rats at a concentration of 0.1 mg/kg po; assay type: functional
[5] = tested on: Rattus norvegicus; test: Inhibitory effect of perorally administered compound (0.5 mg/kg) on gastric lesions induced by ethanol in 7 rats with observed lession index (4.3 mm) was determined; assay type: functional, Stomach
[6] = tested on: Rattus norvegicus; test: Inhibitory effect of perorally administered compound (1.0 mg/kg) on gastric lesions induced by ethanol in 6 rats with observed lession index (0.9 mm) was determined; assay type: functional, Stomach
[7] = tested on: Rattus norvegicus; test: Inhibitory effect of perorally administered compound (0.1 mg/kg) on gastric lesions induced by ethanol in 7 rats with observed lession index (95.0 mm) was determined; assay type: functional, Stomach
[8] = tested on: Rattus norvegicus; test: Inhibitory effect of perorally administered compound (0.2 mg/kg) on gastric lesions induced by ethanol in 7 rats with observed lession index (50.0 mm) was determined; assay type: functional, Stomach
[9] = tested on: Rattus norvegicus; test: Inhibitory effect of perorally administered compound (0.0005 mg/kg) on gastric lesions induced by ethanol in 10 rats with observed lession index (49.2 mm) was determined; assay type: functional, Stomach
[10] = tested on: Rattus norvegicus; test: Inhibitory effect of perorally administered compound (0.001 mg/kg) on gastric lesions induced by ethanol in 9 rats with observed lession index (12.1 mm) was determined; assay type: functional, Stomach
[11] = tested on: Rattus norvegicus; test: Inhibitory effect of perorally administered compound (1.0 mg/kg) on gastric lesions induced by ethanol in 6 rats with observed lession index (91 mm) was determined; assay type: functional, Stomach
[12] = tested on: Rattus norvegicus; test: Inhibitory effect of perorally administered compound (1.0 mg/kg) on gastric lesions induced by ethanol in 6 rats with observed lession index (103.7 mm) was determined; assay type: functional, Stomach
[13] = tested on: Rattus norvegicus; test: Inhibitory effect of perorally administered compound (1.0 mg/kg) on gastric lesions induced by ethanol in 5 rats with observed lession index (68.7 mm) was determined; assay type: functional, Stomach
[14] = tested on: Rattus norvegicus; test: Inhibitory effect of perorally administered compound (0.2 mg/kg) on gastric lesions induced by ethanol in 5 rats with observed lession index (91.3 mm) was determined; assay type: functional, Stomach
[15] = tested on: Rattus norvegicus; test: Gastroprotective effect of compound was determined in rats at a concentration of 0.05 mg/kg po; assay type: functional
[16] = tested on: Rattus norvegicus; test: Inhibitory effect of perorally administered compound (0.5 mg/kg) on gastric lesions induced by ethanol in 7 rats with observed lession index (17.1 mm) was determined; assay type: functional, Stomach
[17] = tested on: Rattus norvegicus; test: Inhibitory effect of perorally administered compound (1.0 mg/kg) on gastric lesions induced by ethanol in 6 rats with observed lession index (8.5 mm) was determined; assay type: functional, Stomach
[18] = tested on: Rattus norvegicus; test: Inhibitory effect of perorally administered compound (0.05 mg/kg) on gastric lesions induced by ethanol in 7 rats with observed lession index (120 mm) was determined; assay type: functional, Stomach
[19] = tested on: Rattus norvegicus; test: Inhibitory effect of perorally administered compound (0.1 mg/kg) on gastric lesions induced by ethanol in 7 rats with observed lession index (90.3 mm) was determined; assay type: functional, Stomach
[20] = tested on: Rattus norvegicus; test: Inhibitory effect of perorally administered compound (0.2 mg/kg) on gastric lesions induced by ethanol in 7 rats with observed lession index (62.7 mm) was determined; assay type: functional, Stomach
[21] = tested on: Rattus norvegicus; test: Inhibitory effect of perorally administered compound (0.0125 mg/Kg) on gastric lesions induced by ethanol in 5 rats with observed lession index (129.6 mm) was determined; assay type: functional, Stomach
[22] = tested on: Rattus norvegicus; test: Inhibitory effect of perorally administered compound (0.025 mg/kg) on gastric lesions induced by ethanol in 5 rats with observed lession index (84.8 mm) was determined; assay type: functional, Stomach
[23] = tested on: Rattus norvegicus; test: Inhibitory effect of perorally administered compound (0.05 mg/kg) on gastric lesions induced by ethanol in 5 rats with observed lession index (48.8 mm) was determined; assay type: functional, Stomach
[24] = tested on: Rattus norvegicus; test: Inhibitory effect of perorally administered compound (0.1 mg/kg) on gastric lesions induced by ethanol in 5 rats with observed lession index (29.1 mm) was determined; assay type: functional, Stomach
[25] = tested on: Rattus norvegicus; test: Inhibitory effect of perorally administered compound (0.2 mg/kg) on gastric lesions induced by ethanol in 5 rats with observed lession index (12.6 mm) was determined; assay type: functional, Stomach
[26] = tested on: Rattus norvegicus; test: Inhibitory effect of perorally administered compound (0.5 mg/kg) on gastric lesions induced by ethanol in 7 rats with observed lession index (0.0 mm) was determined; assay type: functional, Stomach
[27] = tested on: Rattus norvegicus; test: Gastroprotective effect of compound was determined in rats at a peroral dose of 0.0125 mg/kg; assay type: functional; conditions: route oral

For `CC1(C)CCC[C@@]2(C)C1CC=C(C(=O)O)[C@@H]2C(=O)O` (some centres not stated), the Inhibition [1] was 47.7%.
Molecule `CC1(C)CCC[C@@]2(C)C1CC=C(CO)[C@@H]2CO` (some centres not stated) has an Inhibition [2] of 27.6%.
With `CC(=O)OCC1=CCC2C(C)(C)CCC[C@]2(C)[C@H]1COC(C)=O` (some centres not stated) the Inhibition [3] was 36.5%.
With `CO[C@@H]1O[C@@H](OC)[C@H]2C1=CCC1C(C)(C)CCC[C@@]12C` (some centres not stated) the ED50 [4] was 0.15 mg/kg, the Inhibition [5] was 96.7% and the Inhibition [6] was 99.3%. It also gave an Inhibition [7] of 28% and an Inhibition [8] of 62.1%.
Work on `CCCCC(C)(C)[C@H](O)/C=C/C1[C@H](O)CC(=O)[C@@H]1C/C=C\CCCC(=O)O` (some centres not stated) yielded an Inhibition [9] of 64.5% and an Inhibition [10] of 91.3%.
Molecule `COC(=O)C1=CCC2C(C)(C)CCC[C@]2(C)[C@H]1C(=O)OC` (some centres not stated) has an Inhibition [11] of 37.8%.
`CC1(C)CCC[C@@]2(C)C1CC=C1COC[C@@H]12` (some centres not stated) showed an Inhibition [12] of 29.1%.
With `CO[C@@H]1OCC2=CCC3C(C)(C)CCC[C@]3(C)[C@H]21` (some centres not stated) the Inhibition [13] was 54.6% and the Inhibition [14] was 39.6%.
Molecule `CO[C@H]1O[C@@H](OC)[C@H]2C1=CCC1C(C)(C)CCC[C@@]12C` (some centres not stated) has an ED50 [15] of 0.17 mg/kg, an Inhibition [16] of 87.4% and an Inhibition [17] of 93.7%. For the same molecule, the Inhibition [18] was 11.5%, the Inhibition [19] was 33.4% and the Inhibition [20] was 53.8%.
For `CC1(C)CCC[C@]2(C)[C@@H](C=O)C(C=O)=CC[C@@H]12` [POLYGODIAL], the Inhibition [21] was 23.5%, the Inhibition [22] was 50% and the Inhibition [23] was 71.2%. For the same molecule, the Inhibition [24] was 82.8%, the Inhibition [25] was 92.6% and the Inhibition [26] was 100%. For the same molecule, the ED50 [27] was 0.028 mg/kg.
